In patent US9775844B2, “Heterocyclic compounds and uses thereof” (Infinity Pharmaceuticals, Inc., priority 2014, dated 2017):
Like-named read-outs stand apart in the source and are kept apart here.

Key:
Farage cell line = assay: Combination isobologram in Farage cell line; format: cell-based; details: combination of Compound AA and Compound BB
[1] = test system: Myeloid Derived Suppressor Cell; assay: Myeloid Derived Suppressor Cell differentiation assay; format: cell-based; details: MDSC differentiation assay
Lewis Lung Carcinoma = Lewis Lung Carcinoma model; format: in vivo, mice
CT26 colon cancer = CT26 colon cancer model; format: in vivo, mouse
LLC tumor = LLC tumor brei model; format: in vivo
[2] = Oral exposure in the monkey; format: in vivo
phospho-AKT in T cells = assay: Ex vivo whole blood stimulation of phospho-AKT in T cells of LLC-bearing mice; details: LLC-bearing mice treated with compound
[3] = Oral PK in the rat LPS studies (free plasma concentration); format: in vivo; details: plasma, read-out: Free Plasma Conc
Protocol: This study also includes assessment of the exposure to the compounds in plasma and lung tissues.
Ref C is budesonide p.o. The compound was administered p.o. and about 1 hour later, LPS was administered intra-tracheally and plasma was collected. After about 5 hours, plasma and bronchoalveolar lavage samples were collected.

[4] = test system: RANKL driven differentiation of osteoclasts from bone marrow macrophages; assay: Osteoclast differentiation assay (TRAP staining); format: cell-based, mouse; details: FIG. 17
Protocol: Bone Marrow Derived Macrophages as Osteoclast Progenitors: Long bones from young C57B6 mice were harvested and bone marrow was extruded by gentle lavage of the bone marrow cavities with a 28 gage needle. The cells were screened, and red blood cells were removed using red blood cell lysis buffer (Sigma). Bone marrow cells were differentiated to macrophages using 20 ng/ml mouse MCSF (RnD systems) for 3 days (RPMI and 20% FCS). The cell were washed with PBS, and lifted with Accutase for 10 minutes.
Osteoclast Differentiation Assay: The bone marrow macrophage cells were plated at 150,000 cells per well in a 96 well plate in a MEM 10% FCS. […] Then 25 ng/ml mouse MCSF with or without mouse RANKL (100 ng/ml, RnD systems) was added for 6 days. Media changes (including drugs) were done at day 3 and day 5. The cells were then fixed and stained with the tartrate resistant acid phosphatase (TRAP) assay kit from Sigma according to the manufactures instructions. TRAP positive cells (osteoclasts and cells undergoing an osteoclastic differentiation) in a transect of the triplicate wells (at 20× […]) were manually counted by going through the widest part of each well.

[5] = Mouse pharmacokinetics, oral single and repeat dose; format: in vivo; details: female mice, 2, 7.5, 15 mg/kg PO
Protocol: Animals were weighed daily prior to dosing. […] On subsequent dosing days, the animals' condition was noted prior to dosing; the animals were observed within 4 hours of dosing, and at the end of the day.
Samples were collected at pre-dose 0.25, 0.5, 1, 2, 4, 6 and 24 h following the first dose on day 1 and pre-dose (trough), 0.25, 0.5, 1, 2, 4, 6 and 24 h following the final dose on day 3 Animals received a single oral dose daily for 3 consecutive days. Blood was collected by retro-orbital bleeding for all time points on day 1. All other blood sampling was collected by a cardiac puncture. Blood was collected into K2EDTA tubes and placed on wet ice. Within 15 min of collection, the sample was centrifuged at 10,000 rpm at 4° C. for 10 min in a bench top centrifuge and the plasma transferred to a new microcentrifuge tube.
A similar study was carried out using Compound 88. […] Below is a table that details the results for Compound 88: […]

CT26 colon carcinoma = assay: CT26 allograft model of mouse colon cancer; format: in vivo; details: FIG. 28
Protocol: CT26 is an N-nitroso-N-methylurethane-(NNMU) induced, undifferentiated colon carcinoma cell line. It was cloned to generate the cell line designated CT26.WT […] number CRL-2638). 5-6 week old female, Balb/c mice (Jackson Labs) were implanted subcutaneously with 5×10^5 CT26 cells in 200 μl PBS. CT26 cells were cultured in DMEM supplemented with 10% FBS.

pKa = format: physicochemical
Text: The phyiscochemical properties of Compound BB are drug-like, and suitable for use of the compound as a drug.

P-GP (P-glycoprotein 1) = P-GP (P-glycoprotein 1) (Homo sapiens (Human), UniProt P08183); assay: P-glycoprotein inhibition; format: in vitro ADME
P-GP (P-glycoprotein 1), sequence (P08183 whole entry, species assumed): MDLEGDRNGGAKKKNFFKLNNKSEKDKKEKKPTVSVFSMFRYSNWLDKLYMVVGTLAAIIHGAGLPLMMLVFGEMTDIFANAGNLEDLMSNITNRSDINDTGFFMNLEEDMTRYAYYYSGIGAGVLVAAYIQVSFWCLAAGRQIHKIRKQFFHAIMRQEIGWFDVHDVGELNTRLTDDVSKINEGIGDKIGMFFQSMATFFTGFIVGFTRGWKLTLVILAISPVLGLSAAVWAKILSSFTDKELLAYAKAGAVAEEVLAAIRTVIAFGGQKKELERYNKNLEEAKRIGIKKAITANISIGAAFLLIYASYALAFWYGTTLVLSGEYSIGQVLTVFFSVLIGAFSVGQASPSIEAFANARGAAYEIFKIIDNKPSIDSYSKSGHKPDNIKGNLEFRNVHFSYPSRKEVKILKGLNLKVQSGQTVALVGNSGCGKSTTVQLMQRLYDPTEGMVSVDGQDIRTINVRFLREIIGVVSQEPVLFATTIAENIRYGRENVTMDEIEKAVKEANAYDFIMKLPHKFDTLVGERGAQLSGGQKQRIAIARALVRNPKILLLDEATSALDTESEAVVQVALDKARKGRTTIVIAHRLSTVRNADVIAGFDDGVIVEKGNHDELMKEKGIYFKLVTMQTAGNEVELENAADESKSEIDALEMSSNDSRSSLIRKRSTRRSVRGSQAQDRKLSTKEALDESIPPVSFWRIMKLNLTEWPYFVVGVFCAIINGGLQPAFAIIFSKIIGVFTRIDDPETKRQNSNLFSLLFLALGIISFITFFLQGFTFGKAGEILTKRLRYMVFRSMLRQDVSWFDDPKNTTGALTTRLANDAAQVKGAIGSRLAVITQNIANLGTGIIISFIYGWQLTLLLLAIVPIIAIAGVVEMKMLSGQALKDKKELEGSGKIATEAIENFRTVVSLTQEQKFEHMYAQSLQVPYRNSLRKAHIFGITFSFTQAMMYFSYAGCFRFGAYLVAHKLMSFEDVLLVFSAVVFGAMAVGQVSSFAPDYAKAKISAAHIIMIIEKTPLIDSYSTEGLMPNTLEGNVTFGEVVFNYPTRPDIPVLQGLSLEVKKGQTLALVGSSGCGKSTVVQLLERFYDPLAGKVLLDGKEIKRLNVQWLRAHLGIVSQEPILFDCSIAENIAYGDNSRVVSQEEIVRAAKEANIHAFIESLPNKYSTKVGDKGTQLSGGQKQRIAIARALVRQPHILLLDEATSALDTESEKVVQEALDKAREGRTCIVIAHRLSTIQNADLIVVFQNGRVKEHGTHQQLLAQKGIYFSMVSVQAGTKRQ
Text: Without being bound by a particular theory, the P-gp inhibitor could help maintin levels of the P-gp substrate in tumors overexpressing the P-gp transporter.

[6] = In vitro toxicology studies
GL261-Luc = GL261-Luc murine glioblastoma subcutaneous model; format: in vivo, mouse; details: 15 mg/kg QD, PO
PGP = PGP (Homo sapiens (Human), UniProt P08183); assay: PGP efflux; format: in vitro ADME
PGP, sequence (P08183 whole entry, species assumed): as above

[7] = Hepatocyte stability (Hep t1/2); format: in vitro ADME; details: hepatocytes, all species (incl rat); read-out: M, C, D, H Hep (t1/2, min)
4T1 = 4T1 breast cancer model

Question: What does the source list for `C[C@H](NC(=O)c1c(N)nn2cccnc12)c1cc2cccc(C#Cc3cnn(C)c3)c2c(=O)n1-c1ccccc1` [Compound BB]?
Answer: combination effect (isobologram) (Farage cell line): synergistic effect; ARG1 [1]: suppresses; VEGF [1]: suppresses; single agent activity (Lewis Lung Carcinoma): demonstrates single agent activity; MDSC expansion after cyclophosphamide treatment (CT26 colon cancer; CT26 colon cancer model): decreased; monocytic iMCs (CT26 colon cancer; CT26 subcutaneous tumors): decreased; CD206+M2 polarized suppressive macrophages (LLC tumor): reduces; TAMs (LLC tumor): decreased; oral exposure [2]: high; ex vivo whole blood stimulation of phospho-AKT in T cells (phospho-AKT in T cells): inhibits; concentration at 1.5 h ([3]; oral, p.o. 0.5 mg/kg, 1.5h (time of LPS challenge)): 2.1 nM; concentration at […] ([3]; oral, p.o. 0.5 mg/kg, 5.5h (approximately 4 hours post LPS challenge)): 2.6 nM; concentration at 1.5 h ([3]; po, p.o. 1.5 mg/kg, 1.5h): 5.2 nM; concentration at […] ([3]; po, p.o. 1.5 mg/kg, 5.5h): 5.4 nM; concentration at 1.5 h ([3]; po, p.o. 5 mg/kg, 1.5h): 22.6 nM; concentration at […] ([3]; po, p.o. 5 mg/kg, 5.5h): 24.7 nM; RANKL driven differentiation of osteoclasts (TRAP positive cells) [4]: prevents RANKL driven differentiation of osteoclasts; stability in serum (unbound plasma concentration time course) [5]: good stability in serum; MDSC expansion after cyclophosphamide treatment (CT26 colon carcinoma): decreased; pKa (pKa): no ionization from pH 3-10; P-GP inhibition (P-GP (P-glycoprotein 1)): appears to be an inhibitor of P-GP; inhibition at 10 µM (P-GP (P-glycoprotein 1); 10 uM, read-out: PGP Inhibition @ 10 uM): 98%; IC50 (P-GP (P-glycoprotein 1); read-out: PGP Inhibition IC50): < 1 µM; toxicity expected from in vitro toxicology studies [6]: very low toxicity; total flux, GL-261 syngeneic glioma model (GL261-Luc): reduced the total flux; tumor volume, GL-261 syngeneic glioma model (GL261-Luc): reduced tumor volume; PGP efflux@ 10 uM (PGP): No; half-life [7]: > 240 min; tumor growth, orthotopic 4T1 breast cancer model (4T1; 7.5 mg/kg PO once daily, FIG. 33A): reduced tumor growth; total luciferase flux, orthotopic 4T1 breast cancer model (4T1; 7.5 mg/kg PO once daily, FIG. 33B): reduced total luciferase flux; tumor growth, 4T1 model, alone or with chemotherapy (4T1; Compound BB 15 mg/kg PO QD 2 weeks, 5-FU 50 mg/kg, docetaxel 33 mg/kg, paclitaxel 10 mg/kg IP): reduction in tumor growth; anti-tumor activity, subcutaneous 4T1 breast cancer model (4T1; single agent, FIG. 34): single agent activity; maintenance of anti-tumor effect after discontinuation of treatment (4T1; subcutaneous 4T1): at least 6 days
